Measurements as given in patent US20070142348A1, “Microbicidal, prophylactic and therapeutic effect of ctc-96 on papilloma viruses” (REDOX PHARMACEUTICAL CORPORATION, AUDUBON […] AND […], priority 2003, published 2007).
“And” between values parts separate entries of the source, which are not always exact repeats. Identical values can stand only once.

Tests used:
[1] = test system: HPV-11; assay: Therapeutic activity of CTC-96 ointment on human condylomas induced by HPV-11, HPV-11-infected external human xenograft SCID mouse model; assay type: in vivo, SCID mice; conditions: for Graft Size Growth, Means ± SD: thrice a week for 6 weeks on the graft
Procedure: Two different dose levels of CTC-96™ (1%, 0.1%) in an ointment formulation and the vehicle alone were evaluated. SCID mice were grafted on each side of the dorsum with an HPV-11-infected foreskin fragment. The HPV-11-infected grafts were left to grow for 6 weeks before treatment was started and continued for 6 weeks. During the treatment phase, the drug was administered thrice a week, directly on the graft. Graft length, width, and height were measured every two weeks during the treatment phase. At the end of the study, the animals were sacrificed. The grafts were measured, recovered, and processed for histology. HPV infection in tissue sections is defined by the presence of two out of three of the following features: acanthosis, koilocytosis, or parakeratosis.
The Graft Size Growth (GSG) index was our primary endpoint in this evaluation of CTC-96™. […] However, there is also a marked increase in the variance of the GSG in the high dose CTC-96™ group.
In our analysis, to measure graft size growth we used a composite index that summarizes for each mouse the growth of the two grafts borne by the animal, each from a different foreskin donor. If instead we look at the growth of each individual graft, we can see that the means, medians, or variances of the graft size growth are more alike among the three treatment groups as shown in FIG. 1. The ANOVA fails to show a treatment effect on the growth of the individual grafts.

[2] = test system: HPV-11; assay: Prophylactic (topical microbicide) activity: human grafts exposed to CTC-96 for 1 hour, washed, then exposed to HPV-11; xenograft in the SCID mouse; assay type: in vivo
Procedure: Given the virucidal activity of CTC-96™, a series of experiments was performed to evaluate the prophylactic activity of the compound under conditions resembling that of the use of a topical microbicide. When using a topical microbicide the target organ is first exposed to the microbicide before exposure to the virus. Various concentrations of CTC-96™ were evaluated in a model of HPV-11-infected human xenograft in the SCID mouse. The human grafts were exposed to CTC-96™ for 1 hour prior to exposure to HPV-11 and engraftment. Because CTC-96™ is virucidal, it was washed off the foreskin fragments before exposure to the virus. The HPV-11-infected grafts were allowed to grow for 12 weeks. After 12 weeks, the animals were sacrificed and the grafts recovered, measured and processed. Graft size, expressed as the composite geometric mean diameter of the two grafts borne by the animal, was the primary endpoint. Histology of the grafts was examined for the presence of HPV. Grafts were also processed for detection of HPV-11 mRNAs transcripts by reverse transcriptase-polymerase chain reaction (RT-PCR).
Grafts that are not infected by HPV proliferate poorly and tend to be eliminated by the mouse's host defenses as a foreign body. The residual fibrous tissue is a scar. In order to analyze the results properly, grafts that were truly negative (graft showing a healthy human epithelium) as well as those showing a foreign body reaction or fibrous tissue were counted as negative for HPV.
Table 7 summarizes the immunocytochemistry results for the presence of HPV capsid antigen in the grafts. As the concentration of CTC-96™ increases, the number of grafts displaying either fibrous tissue or a foreign body reaction also increases. […] Again, a strong microbicidal effect of CTC-96™ is observed.

[3] = test system: Bovine Papillomavirus Type 1 (BPV-1); assay: Inhibition of BPV-1 transformation of C127 mouse epithelial cells: exposure of cells pretreated with virus to drug; assay type: cell-based; conditions: CTC-96 5 μg/ml added 5 hours after virus; counted on day 12; duplicate values
Procedure: (§1) Experiments were performed to determine if CTC-96™ can inactivate the ability of bovine papillomavirus type 1 (BPV-1) to morphologically transform C127 mouse epithelial cells in culture. Cell-free stocks of BPV-1 were treated with CTC-96™ or placebo. In order to detect the transforming ability of BPV-1, sub-confluent cultures of C127 mouse cells are infected with a standardized inoculate of BPV-1. For the positive controls, stock virus was added to the culture medium present on the cells. The presence of morphologically transformed foci was counted after 2 weeks and then again at 3 weeks. Controls included non-infected cells (with or without drug) and untreated BPV-1.
To further evaluate the time course of interaction between CTC-96™ and Papillomavirus the following experiment was performed. Virus was put on C127 mouse epithelial cells in culture at time 0 and incubated for 5 hours. Medium was then removed and replaced with medium plus drug. Cells were then re-fed every 2 days and the experiments counted on day 12.

[4] = test system: Bovine Papillomavirus Type 1 (BPV-1); assay: Inhibition of BPV-1 transformation of C127 mouse epithelial cells: pretreatment and post-treatment combined; assay type: cell-based
Procedure: as §1
To further clarify the dynamics of CTC-96™ Papillomavirus interaction an experiment was performed to combine exposure of virus to the drug prior to cellular infection and exposure of infected cells to the drug. For this purpose BPV-1 was incubated with either CTC-96™ or placebo, diluted and then added to C127 Mouse Epithelial Cells in culture with the addition of CTC-96™ or placebo (Table 11). Addition of 10 μg/ml or 20 μg/ml CTC-96™ to the cell cultures was toxic to the cells. […] Pre-treatment with 50 μg/ml CTC-96™ but not placebo halved the foci number in the normal medium post-treatment control. Thus a small microbicidal effect is probable even at these low concentrations of CTC-96™. The main activity at these concentrations, however, is post-infection.

[5] = pre-treatment 50 μg/ml CTC-96, post-treatment "μg/ml CTC-96" (figure not given)
[6] = pre-treatment 50 μg/ml CTC-96, post-treatment normal medium
[7] = pre-treatment 50 μg/ml CTC-96, post-treatment placebo
[8] = pre-treatment Placebo, post-treatment 5 μg/ml CTC-96

With CC(/C=C(/C)[O-])=NCCN=C(C)/C=C(/C)[O-].Cc1ncc[nH]1.Cc1ncc[nH]1.[Br-].[Co+3] [CTC-96] the “Graft Size Growth, Median” value ([1]; CTC-96 0.1% ointment) was 60.51%, the “Graft Size Growth, Means ± SD” value ([1]; CTC-96 0.1% ointment) was 64.53 ± 41.92% and the “Graft Size Growth, Median” value ([1]; CTC-96 1% ointment) was 52.03%. For the same molecule, the “Graft Size Growth, Means ± SD” value ([1]; CTC-96 1% ointment) was 91.39 ± 127.84%, the “Effect on the growth of HPV-11-induced papillomas” value ([1]; mouse, in vivo) was “no detectable effect” and the “Histology: grafts Negative for HPV (percent)” value ([2]; CTC-96 0.05%) was 30%. For the same molecule, the “Histology: grafts Positive for HPV (number)” value ([2]; CTC-96 0.05%) was 16, the “Histology: grafts Positive for HPV (percent)” value ([2]; CTC-96 0.05%) was 73% and the “Immunocytochemistry (HPV capsid antigen): grafts Negative (percent)” value ([2]; CTC-96 0.05%) was 48%. For the same molecule, the “Immunocytochemistry (HPV capsid antigen): grafts Positive (number)” value (shortened to “Immunocytochemistry … grafts Positive (number)”) ([2]; CTC-96 0.05%) was 12, the “Immunocytochemistry (HPV capsid antigen): grafts Positive (percent)” value ([2]; CTC-96 0.05%) was 52% and the “RT-PCR (HPV-11 mRNA): grafts Negative (number)” value ([2]; CTC-96 0.05%) was 9. The “RT-PCR (HPV-11 mRNA): grafts Negative (percent)” value ([2]; CTC-96 0.05%) was 39%, the “RT-PCR (HPV-11 mRNA): grafts Positive (number)” value ([2]; CTC-96 0.05%) was 14 and the “RT-PCR (HPV-11 mRNA): grafts Positive (percent)” value ([2]; CTC-96 0.05%) was 61%. For the same molecule, the “Immunocytochemistry (HPV capsid antigen): grafts Negative (number)” value (“Immunocytochemistry … grafts Negative (number)” below) ([2]; CTC-96 0.05%, foreign body/fibrous counted as negative) was 11, the “Histology: grafts Negative for HPV (number)” value ([2]; CTC-96 0.2%) was 14 and the “Histology: grafts Negative for HPV (percent)” value ([2]; CTC-96 0.2%) was 67%. The “Histology: grafts Positive for HPV (number)” value ([2]; CTC-96 0.2%) was 7, the “Histology: grafts Positive for HPV (percent)” value ([2]; CTC-96 0.2%) was 33% and the “Immunocytochemistry … grafts Negative (number)” value ([2]; CTC-96 0.2%) was 15. The “Immunocytochemistry (HPV capsid antigen): grafts Negative (percent)” value ([2]; CTC-96 0.2%) was 71%, the “Immunocytochemistry … grafts Positive (number)” value ([2]; CTC-96 0.2%) was 6 and the “Immunocytochemistry (HPV capsid antigen): grafts Positive (percent)” value ([2]; CTC-96 0.2%) was 29%. The “RT-PCR (HPV-11 mRNA): grafts Negative (number)” value ([2]; CTC-96 0.2%) was 17, the “RT-PCR (HPV-11 mRNA): grafts Negative (percent)” value ([2]; CTC-96 0.2%) was 81% and the “RT-PCR (HPV-11 mRNA): grafts Positive (number)” value ([2]; CTC-96 0.2%) was 4. The “RT-PCR (HPV-11 mRNA): grafts Positive (percent)” value ([2]; CTC-96 0.2%) was 19%, the “Histology: grafts Negative for HPV (number)” value ([2]; CTC-96 1%) was 22 and the “Histology: grafts Negative for HPV (percent)” value ([2]; CTC-96 1%) was 100%. For the same molecule, the “Histology: grafts Positive for HPV (number)” value ([2]; CTC-96 1%) was 0, the “Histology: grafts Positive for HPV (percent)” value ([2]; CTC-96 1%) was 0% and the “Immunocytochemistry … grafts Negative (number)” value ([2]; CTC-96 1%) was 22. The “Immunocytochemistry (HPV capsid antigen): grafts Negative (percent)” value ([2]; CTC-96 1%) was 100%, the “Immunocytochemistry … grafts Positive (number)” value ([2]; CTC-96 1%) was 0 and the “Immunocytochemistry (HPV capsid antigen): grafts Positive (percent)” value ([2]; CTC-96 1%) was 0%. For the same molecule, the “RT-PCR (HPV-11 mRNA): grafts Negative (number)” value ([2]; CTC-96 1%) was 14, the “RT-PCR (HPV-11 mRNA): grafts Negative (percent)” value ([2]; CTC-96 1%) was 78% and the “RT-PCR (HPV-11 mRNA): grafts Positive (number)” value ([2]; CTC-96 1%) was 4. For the same molecule, the “RT-PCR (HPV-11 mRNA): grafts Positive (percent)” value ([2]; CTC-96 1%) was 22%, the “Graft size (composite geometric mean diameter) versus control, FIG. 2” value ([2]; all CTC-96 concentrations, 12 weeks) was “dramatic and highly statistically significant microbicidal effect” and the “Histology: grafts Negative for HPV (number)” value ([2]; grafts pre-exposed to CTC-96 0.05%, foreign body/fibrous counted as negative) was 7. The “Number of Transformed Foci, Exp. 1” value [3] was 3 and 2, the “Number of Transformed Foci, Exp. 2” value [3] was 3 and the Focus formation ([4]; addition of 5 μg/ml CTC-96 to the cell cultures) was “effectively suppressed all focus formation”. The “Toxicity to C127 cell cultures” value ([4]; addition of 10 μg/ml or 20 μg/ml CTC-96 to the cell cultures) was “toxic”, the “Number of Transformed Foci, Experiment 3-1” value (from here on “Number … Experiment 3-1”) [4, 5] was 0 and the “Number of Transformed Foci, Experiment 3-2” value (from here on “Number … Experiment 3-2”) [4, 5] was 0. For the same molecule, the “Number … Experiment 3-1” value [4, 6] was 71 and 46, the “Number … Experiment 3-2” value [4, 6] was 46 and 41 and the “Number … Experiment 3-1” value [4, 7] was 65 and 61. For the same molecule, the “Number … Experiment 3-2” value [4, 7] was 39 and 62, the “Number … Experiment 3-1” value [4, 8] was 0 and the “Number … Experiment 3-2” value [4, 8] was 0. For the same molecule, the “Inhibition of the virus by pretreatment of the virus (microbicidal effect)” value ([4]; pretreatment of BPV-1 with 50 μg/ml CTC-96) was 50-60%.
